The values below come from ChEMBL document CHEMBL2346623, “Deconstruction of sulfonamide inhibitors of the urotensin receptor (UT) and design and synthesis of benzylamine and benzylsulfone antagonists” (Bioorg Med Chem Lett, 2013).

Series [1] deals with T1, Urotensin-2 receptor (Homo sapiens, UniProt Q9UKP6).
T1 sequence (Q9UKP6 whole entry): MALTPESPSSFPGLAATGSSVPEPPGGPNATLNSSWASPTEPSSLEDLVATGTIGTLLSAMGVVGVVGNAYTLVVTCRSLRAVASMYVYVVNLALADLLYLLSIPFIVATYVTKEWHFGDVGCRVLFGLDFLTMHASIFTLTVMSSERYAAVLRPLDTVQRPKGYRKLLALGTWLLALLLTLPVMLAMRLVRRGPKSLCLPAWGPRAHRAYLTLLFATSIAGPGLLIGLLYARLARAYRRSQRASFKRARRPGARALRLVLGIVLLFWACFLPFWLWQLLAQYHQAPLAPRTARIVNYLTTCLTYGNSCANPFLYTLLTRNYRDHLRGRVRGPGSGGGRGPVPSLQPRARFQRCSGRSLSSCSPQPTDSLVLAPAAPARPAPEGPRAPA
As to the kind of experiment: Displacement of [125I]-U2 from human recombinant urotensin2 receptor expressed in human Chem-2 cells after 4 hrs by scintillation proximity assay. It is filed as cell-based.

Series [2] addresses T1, Urotensin-2 receptor. In words: Antagonist activity at recombinant human urotensin2 receptor expressed in CHO cells assessed as inhibition of urotensin2-stimulated Ca2+ mobilization after 1 hr by FLIPR assay. It counts as functional, cell-based. A general note: Calcium assays in cells follow changes in intracellular calcium, usually with a dye or a luminescent sensor.
For series [3], the target named is T1, Urotensin-2 receptor. In words: Antagonist activity at recombinant human urotensin2 receptor expressed in CHO cells assessed as inhibition of urotensin2-stimulated Ca2+ mobilization incubated 10 mins prior to urotensin2 stimulation measured after 10 mins by fluorometric analysis. It is filed as functional, cell-based.
Series [4] has as its target T1, Urotensin-2 receptor. In words: Displacement of [125I]-U2 from recombinant human urotensin2 receptor expressed in human U2OS cells after 30 mins by gamma counting analysis. It counts as cell-based. On the technique in general: Loss of bound radioactivity is the signal in a displacement assay; it reports binding, not function.
The nature of series [5]: Drug metabolism in human liver microsomes relative to total liver blood flow. It is filed as ADME, Microsome. Particulars: read-out: Drug metabolism.
Series [6] can be described thus: Solubility of the compound at pH 4.5. It is filed as physicochemical. Particulars: buffer.
Series [7] can be described thus: Solubility of the compound at pH 7.4. It is filed as physicochemical. The following applies: buffer.
Series [8] has as its target T2, Urotensin-2 receptor (Rattus norvegicus, UniProt P49684).
T2 sequence (P49684 whole entry): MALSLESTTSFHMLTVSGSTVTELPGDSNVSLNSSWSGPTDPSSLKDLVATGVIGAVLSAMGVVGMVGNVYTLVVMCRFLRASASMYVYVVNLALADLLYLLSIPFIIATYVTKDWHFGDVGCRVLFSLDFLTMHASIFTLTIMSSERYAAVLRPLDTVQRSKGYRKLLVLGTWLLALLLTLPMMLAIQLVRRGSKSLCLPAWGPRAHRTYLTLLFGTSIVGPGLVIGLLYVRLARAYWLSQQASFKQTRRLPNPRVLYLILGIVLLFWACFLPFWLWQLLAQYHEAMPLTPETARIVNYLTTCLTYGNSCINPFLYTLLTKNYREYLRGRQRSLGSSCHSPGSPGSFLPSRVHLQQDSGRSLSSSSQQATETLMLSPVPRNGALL
In words: Antagonist activity at rat urotensin2 receptor assessed as inhibition of urotensin2-stimulated Ca2+ mobilization by cell-based assay. It is filed as functional.

Series [9] addresses T3, Urotensin-2 receptor (Mus musculus, UniProt Q8VIH9).
T3 sequence (Q8VIH9 whole entry): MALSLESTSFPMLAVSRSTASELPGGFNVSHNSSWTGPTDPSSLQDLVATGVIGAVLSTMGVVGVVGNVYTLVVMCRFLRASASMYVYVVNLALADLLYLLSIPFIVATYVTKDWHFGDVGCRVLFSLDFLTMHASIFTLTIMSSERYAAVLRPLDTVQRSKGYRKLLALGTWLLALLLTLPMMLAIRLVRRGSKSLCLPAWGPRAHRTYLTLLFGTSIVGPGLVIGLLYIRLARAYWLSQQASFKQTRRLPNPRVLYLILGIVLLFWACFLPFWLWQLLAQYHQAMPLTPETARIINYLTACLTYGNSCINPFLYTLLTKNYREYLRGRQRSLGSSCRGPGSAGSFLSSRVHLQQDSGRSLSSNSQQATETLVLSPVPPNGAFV
As to the kind of experiment: Antagonist activity at mouse urotensin2 receptor assessed as inhibition of urotensin2-stimulated Ca2+ mobilization by cell-based assay. It is filed as functional.

The nature of series [10]: Drug metabolism in rat liver microsomes relative to total liver blood flow. It is filed as ADME, Microsome. Particulars: read-out: Drug metabolism. On the technique in general: Liver microsomes are vesicles of endoplasmic reticulum, rich in cytochrome P450 enzymes.

One may read the IC50 as the concentration needed to halve the response being measured. Take `CN1CC[C@H](Oc2cc(NCc3c(Br)ccc4c3OCO4)ccc2C(F)(F)F)C1`: the IC50 in series [1] came out at 0.62 µM; in series [2] it was 1.4 µM.

As for `CN1CC[C@H](Oc2cc(NCc3ccccc3Br)ccc2C(F)(F)F)C1`, the results for the half-maximal inhibitory concentration (IC50) in series [1] and in [2] were 0.821 µM and 1.87 µM, respectively.

For the molecule `COc1cc(Br)c(S(=O)(=O)Nc2ccc(C(F)(F)F)c(OC[C@@H]3CCCN3C)c2)cc1OC`, in series [1], the IC50 amounted to 2.1 µM.

In the case of `Cc1cc(NC(=O)NCCN2CCC(O)(Cc3ccccc3)CC2)c2ccccc2n1` [PALOSURAN], the IC50 in series [3] was 0.039 µM; in series [4], under 0.005 µM. The hepatic extraction ratio in [5] is 0.53.

On to `COc1cc(Br)c(S(=O)(=O)Nc2ccc(C(F)(F)F)c(OCCN3CCOCC3)c2)cc1OC`, for which the IC50 in [1] amounted to 6.2 µM.

`COc1cc(Br)c(CNc2ccc(Cl)c(O[C@@H]3CCN(C)C3)c2)cc1OC`: the IC50 came out at 0.237 µM in [1] and 1.33 µM in series [2]. Further, in [5], the hepatic extraction ratio is 0.28.

Consider `COc1cccc(CNc2ccc(C(F)(F)F)c(O[C@H]3CCN(C)C3)c2)c1`, for which the IC50 in [1] was 0.691 µM; in [2] it was 1.13 µM.

In the case of `COc1cc(Br)c([S+]([O-])Cc2ccc(Cl)c(O[C@@H]3CCN(C)C3)c2)cc1OC` (stereo partly drawn), in series [1], the IC50 was 0.245 µM. The hepatic extraction ratio in series [5] is 0.72.

In the case of `COc1cc(Br)c(SCc2ccc(Cl)c(O[C@@H]3CCN(C)C3)c2)cc1OC`, the IC50 in series [1] is 0.44 µM. Also, the hepatic extraction ratio in series [5] came to 0.76.

`COc1cc(Br)c(S(=O)(=O)Nc2ccc(C(F)(F)F)c(F)c2)cc1OC`: in series [1], the IC50 was over 10 µM.

For the molecule `CN(C)CCOc1cc(NCc2ccccc2Br)ccc1Cl`, the IC50 stood at 3.5 µM in series [1] and 6 µM in [2].

Turning to `COc1cc(Br)c(S(=O)(=O)Nc2ccc(C(F)(F)F)c(OC[C@H]3CCCN3C)c2)cc1OC`, the IC50 in series [1] was determined as 0.8 µM; in series [2] it was 0.35 µM.

In the case of `COc1cc(Br)c(S(=O)(=O)Nc2ccc(C(F)(F)F)c(OCCN3CCN(C)CC3)c2)cc1OC`, the IC50 in series [1] was determined as 0.84 µM.

Take `CN(C)CCOc1cc(NCc2ccccc2)ccc1Cl`: in series [1], the IC50 was over 10 µM.

For the molecule `COc1cc(Br)c(S(=O)(=O)Nc2ccc(Cl)c(O[C@@H]3CCN(C)C3)c2)cc1OC`, the figures for the IC50 in series [1] and in series [2] were 0.023 µM and 0.043 µM, respectively. The hepatic extraction ratio in series [5] amounted to 0.65.

Turning to `COc1cc(Br)c(S(=O)(=O)Nc2ccc(C(F)(F)F)c(OCCN(C)C)c2)cc1OC`, the figures for the IC50 in series [1] and in series [2] were 0.134 µM and 0.1 µM, respectively.

In the case of `COc1cc(Br)c(CNc2ccc(Cl)c(O[C@H]3CCN(C)C3)c2)cc1OC`, the values for the IC50 in series [1] and in series [2] were 1.35 µM and 1.45 µM, respectively. Also, the hepatic extraction ratio in series [5] stood at 0.36.

For `CN1CC[C@H](Oc2cc(NCc3cc4c(cc3Br)OCO4)ccc2C(F)(F)F)C1`, the IC50 is 0.45 µM in series [1] and 0.95 µM in [2].

Broadly, the solubility is how much of the substance goes into solution per volume. Read a high solubility as a readily soluble substance. Consider `COc1cc(Br)c(S(=O)(=O)Cc2ccc(Cl)c(O[C@@H]3CCN(C)C3)c2)cc1OC`, for which the solubility in series [6] and in series [7] was over 87 µg/mL each time. Further, the IC50 turned out to be 2 µM in [8] and 4.7 µM in [9].

Turning to `CN(C)CCOc1cc(NCc2ccccc2C(F)(F)F)ccc1Cl`, the IC50 in [1] amounted to 0.52 µM; in series [2], 0.765 µM.

For the molecule `COc1cc(Br)c(CNc2ccc(Cl)c(OCCN(C)C)c2)cc1OC`, the half-maximal inhibitory concentration (IC50) worked out at 1.2 µM in series [1] and 1.3 µM in [2].

Take `COc1cc(Br)c(CNc2ccc(C(F)(F)F)c(O[C@H]3CCN(C)C3)c2)cc1OC`: the solubility in series [6] and in series [7] was over 52 µg/mL each time. Besides, the IC50 worked out at 0.217 µM in series [1], 0.191 µM in series [2], 3.9 µM in [8] and 6.4 µM in series [9]. Further, the hepatic extraction ratio in series [5] was 0.43; in series [10], under 0.06.

In the case of `CN1CC[C@H](Oc2cc(NCc3cccs3)ccc2C(F)(F)F)C1`, the half-inhibitory concentration (IC50) came out at 2.7 µM in series [1] and 2 µM in series [2].
